Experimental data as given in article PMC8398766, “Do Small Molecules Activate the TrkB Receptor in the Same Manner as BDNF? Limitations of Published TrkB Low Molecular Agonists and Screening for Novel TrkB Orthosteric Agonists” (Pharmaceuticals, 2021).

Columns and labels:
[1] = biological target: T1, ACE (Homo sapiens, UniProt P12821); assay: BioPrint Profile Panel; format: biochemical; conditions: Non-Kinase Enzyme, read-out: % of specific inhibition
T1 construct: purchased Eurofins Discovery (Cerep) BioPrint Profile Panel
Excerpt: (§1) The BioPrint® Profile Panel service offered by Eurofins Discovery (Poitiers, France) was chosen to perform selectivity analysis.

[2] = biological target: T2, ACE-2 (Homo sapiens, UniProt Q9BYF1); assay: BioPrint Profile Panel; format: biochemical; conditions: Non-Kinase Enzyme, read-out: % of specific inhibition
T2 construct: purchased Eurofins Discovery (Cerep) BioPrint Profile Panel
Excerpt: as §1

[3] = test system: ATPase (Na+/K+); assay: BioPrint Profile Panel; format: biochemical; conditions: 10 μM; Non-Kinase Enzyme
Excerpt: as §1

[4] = biological target: T3, Abl kinase (Homo sapiens, UniProt P00519); assay: BioPrint Profile Panel; format: biochemical; conditions: read-out: % of specific inhibition
T3 construct: purchased Eurofins Discovery (Cerep) BioPrint Profile Panel
Excerpt: as §1

[5] = biological target: T4, BACE-1 (Homo sapiens, UniProt P56817); assay: BioPrint Profile Panel; format: biochemical; conditions: Non-Kinase Enzyme, read-out: % of specific inhibition
T4 construct: purchased Eurofins Discovery (Cerep) BioPrint Profile Panel
Excerpt: as §1

[6] = biological target: T5, CDK2 (Homo sapiens, UniProt P24941); assay: BioPrint Profile Panel; format: biochemical; conditions: Kinase, read-out: % of specific inhibition
T5 construct: purchased Eurofins Discovery (Cerep) BioPrint Profile Panel
Excerpt: as §1

[7] = biological target: T6, COX1 (Homo sapiens, UniProt P23219); assay: BioPrint Profile Panel; format: biochemical; conditions: Non-Kinase Enzyme, read-out: % of specific inhibition
T6 construct: purchased Eurofins Discovery (Cerep) BioPrint Profile Panel
Excerpt: as §1

[8] = biological target: T7, COX2 (Homo sapiens, UniProt P35354); assay: BioPrint Profile Panel; format: biochemical; conditions: Non-Kinase Enzyme
T7 construct: purchased Eurofins Discovery (Cerep) BioPrint Profile Panel
Excerpt: as §1

[9] = biological target: T8, CaMK2α (Homo sapiens, UniProt Q9UQM7); assay: BioPrint Profile Panel; format: biochemical; conditions: Kinase, read-out: % of specific inhibition
T8 construct: purchased Eurofins Discovery (Cerep) BioPrint Profile Panel
Excerpt: as §1

[10] = biological target: T9, ERK2 (Homo sapiens, UniProt P28482); assay: BioPrint Profile Panel; format: biochemical; conditions: Kinase, read-out: % of specific inhibition
T9 construct: purchased Eurofins Discovery (Cerep) BioPrint Profile Panel
Excerpt: as §1

[11] = biological target: T10, FLT-1 kinase (Homo sapiens, UniProt P17948); assay: BioPrint Profile Panel; format: biochemical; conditions: read-out: % of specific inhibition
T10 construct: purchased Eurofins Discovery (Cerep) BioPrint Profile Panel
Excerpt: as §1

[12] = biological target: T11, Fyn kinase (Homo sapiens, UniProt P06241); assay: BioPrint Profile Panel; format: biochemical; conditions: read-out: % of specific inhibition
T11 construct: purchased Eurofins Discovery (Cerep) BioPrint Profile Panel
Excerpt: as §1

[13] = test system: Guanylyl cyclase; assay: BioPrint Profile Panel; format: biochemical; conditions: 10 μM; Activator effect
Excerpt: as §1

[14] = test system: HIV-1 protease; assay: BioPrint Profile Panel; format: biochemical; conditions: 10 μM; Non-Kinase Enzyme
Excerpt: as §1

[15] = biological target: T12, IRK (Homo sapiens, UniProt P06213); assay: BioPrint Profile Panel; format: biochemical; conditions: Kinase, read-out: % of specific inhibition
T12 construct: purchased Eurofins Discovery (Cerep) BioPrint Profile Panel
Excerpt: as §1

[16] = biological target: T13, Lyn A kinase (Homo sapiens, UniProt P07948); assay: BioPrint Profile Panel; format: biochemical
T13 construct: purchased Eurofins Discovery (Cerep) BioPrint Profile Panel
Excerpt: as §1

[17] = biological target: T14, MMP-1 (Homo sapiens, UniProt P03956); assay: BioPrint Profile Panel; format: biochemical; conditions: Non-Kinase Enzyme, read-out: % of specific inhibition
T14 construct: purchased Eurofins Discovery (Cerep) BioPrint Profile Panel
Excerpt: as §1

[18] = biological target: T15, MMP-2 (Homo sapiens, UniProt P08253); assay: BioPrint Profile Panel; format: biochemical; conditions: Non-Kinase Enzyme
T15 construct: purchased Eurofins Discovery (Cerep) BioPrint Profile Panel
Excerpt: as §1

[19] = biological target: T16, MMP-9 (Homo sapiens, UniProt P14780); assay: BioPrint Profile Panel; format: biochemical; conditions: Non-Kinase Enzyme, read-out: % Inhibition of Control Specific Binding
T16 construct: purchased Eurofins Discovery (Cerep) BioPrint Profile Panel
Excerpt: as §1

[20] = biological target: PDE2A1 (Homo sapiens, UniProt O00408); assay: BioPrint Profile Panel; format: biochemical; conditions: Non-Kinase Enzyme, read-out: % of specific inhibition
Excerpt: as §1

[21] = biological target: T17, PDE3B (Homo sapiens, UniProt Q13370); assay: BioPrint Profile Panel; format: biochemical; conditions: Non-Kinase Enzyme, read-out: % of specific inhibition
T17 construct: purchased Eurofins Discovery (Cerep) BioPrint Profile Panel
Excerpt: as §1

[22] = biological target: T18, PDE4D2 (Homo sapiens, UniProt Q08499); assay: BioPrint Profile Panel; format: biochemical; conditions: Non-Kinase Enzyme, read-out: % of specific inhibition
T18 construct: purchased Eurofins Discovery (Cerep) BioPrint Profile Panel
Excerpt: as §1

[23] = biological target: T19, PDE5 (Homo sapiens, UniProt O76074); assay: BioPrint Profile Panel; format: biochemical; conditions: Non-Kinase Enzyme, read-out: % of specific inhibition
T19 construct: purchased Eurofins Discovery (Cerep) BioPrint Profile Panel
Excerpt: as §1

[24] = test system: PDE6; assay: BioPrint Profile Panel; format: biochemical; conditions: 10 μM; Non-Kinase Enzyme
Excerpt: as §1

[25] = biological target: T20, Xanthine oxidase/ superoxide O2-scavenging (Bos taurus, UniProt P80457); assay: BioPrint Profile Panel; format: biochemical; conditions: Non-Kinase Enzyme
T20 construct: purchased Eurofins Discovery (Cerep) BioPrint Profile Panel
Excerpt: as §1

[26] = biological target: T21, ZAP70 kinase (Homo sapiens, UniProt P43403); assay: BioPrint Profile Panel; format: biochemical; conditions: read-out: % of specific inhibition
T21 construct: purchased Eurofins Discovery (Cerep) BioPrint Profile Panel
Excerpt: as §1

[27] = biological target: T22, acetylcholinesterase (Homo sapiens, UniProt P22303); assay: BioPrint Profile Panel; format: biochemical; conditions: Non-Kinase Enzyme, read-out: % of specific inhibition
T22 construct: purchased Eurofins Discovery (Cerep) BioPrint Profile Panel
Excerpt: as §1

[28] = biological target: T23, caspase-3 (Homo sapiens, UniProt P42574); assay: BioPrint Profile Panel; format: biochemical; conditions: Non-Kinase Enzyme, read-out: % of specific inhibition
T23 construct: purchased Eurofins Discovery (Cerep) BioPrint Profile Panel
Excerpt: as §1

[29] = test system: inducible NOS; assay: BioPrint Profile Panel; format: biochemical; conditions: 10 μM; Non-Kinase Enzyme
Excerpt: as §1

[30] = biological target: T24, p38α kinase (Homo sapiens, UniProt Q16539); assay: BioPrint Profile Panel; format: biochemical; conditions: read-out: % of specific inhibition
T24 construct: purchased Eurofins Discovery (Cerep) BioPrint Profile Panel
Excerpt: as §1

[31] = in vitro; conditions: human, Caco-2
[32] = in vitro; conditions: human, microsomes
[33] = read-out: % Inhibition of Control Specific Binding

T20 sequence (P80457 whole entry): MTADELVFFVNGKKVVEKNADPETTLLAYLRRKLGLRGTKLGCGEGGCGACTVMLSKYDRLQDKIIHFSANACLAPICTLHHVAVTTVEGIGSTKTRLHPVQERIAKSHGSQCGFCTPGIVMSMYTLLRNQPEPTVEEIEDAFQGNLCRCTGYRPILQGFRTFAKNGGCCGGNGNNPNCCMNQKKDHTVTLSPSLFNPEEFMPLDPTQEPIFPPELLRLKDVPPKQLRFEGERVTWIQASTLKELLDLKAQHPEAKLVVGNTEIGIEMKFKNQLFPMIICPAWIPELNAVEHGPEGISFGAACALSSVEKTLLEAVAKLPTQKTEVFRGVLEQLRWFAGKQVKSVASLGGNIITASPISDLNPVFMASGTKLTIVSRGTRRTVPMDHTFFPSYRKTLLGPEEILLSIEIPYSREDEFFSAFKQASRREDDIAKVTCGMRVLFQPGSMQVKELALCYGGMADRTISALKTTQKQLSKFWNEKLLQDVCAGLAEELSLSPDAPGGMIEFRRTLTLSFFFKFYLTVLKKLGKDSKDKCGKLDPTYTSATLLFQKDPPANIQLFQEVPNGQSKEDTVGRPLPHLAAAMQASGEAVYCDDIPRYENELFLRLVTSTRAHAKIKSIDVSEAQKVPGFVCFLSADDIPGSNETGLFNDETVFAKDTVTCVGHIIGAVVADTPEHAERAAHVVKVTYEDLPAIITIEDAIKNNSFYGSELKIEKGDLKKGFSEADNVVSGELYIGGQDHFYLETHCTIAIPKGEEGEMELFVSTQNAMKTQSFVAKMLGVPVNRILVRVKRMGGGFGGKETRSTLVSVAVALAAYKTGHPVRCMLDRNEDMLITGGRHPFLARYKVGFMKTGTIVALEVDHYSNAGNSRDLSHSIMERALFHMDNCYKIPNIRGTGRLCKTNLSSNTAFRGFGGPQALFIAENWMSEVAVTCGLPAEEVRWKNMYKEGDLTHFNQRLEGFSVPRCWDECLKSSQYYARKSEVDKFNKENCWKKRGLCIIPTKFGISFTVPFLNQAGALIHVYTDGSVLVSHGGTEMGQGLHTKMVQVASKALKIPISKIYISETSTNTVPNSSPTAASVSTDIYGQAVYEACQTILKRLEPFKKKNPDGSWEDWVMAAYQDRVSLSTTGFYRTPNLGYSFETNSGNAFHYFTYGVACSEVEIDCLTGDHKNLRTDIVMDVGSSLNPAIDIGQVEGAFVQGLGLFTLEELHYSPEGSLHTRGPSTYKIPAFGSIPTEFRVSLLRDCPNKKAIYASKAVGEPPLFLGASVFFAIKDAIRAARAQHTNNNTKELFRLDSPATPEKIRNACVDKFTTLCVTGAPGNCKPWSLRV
T15 sequence (P08253 110-660): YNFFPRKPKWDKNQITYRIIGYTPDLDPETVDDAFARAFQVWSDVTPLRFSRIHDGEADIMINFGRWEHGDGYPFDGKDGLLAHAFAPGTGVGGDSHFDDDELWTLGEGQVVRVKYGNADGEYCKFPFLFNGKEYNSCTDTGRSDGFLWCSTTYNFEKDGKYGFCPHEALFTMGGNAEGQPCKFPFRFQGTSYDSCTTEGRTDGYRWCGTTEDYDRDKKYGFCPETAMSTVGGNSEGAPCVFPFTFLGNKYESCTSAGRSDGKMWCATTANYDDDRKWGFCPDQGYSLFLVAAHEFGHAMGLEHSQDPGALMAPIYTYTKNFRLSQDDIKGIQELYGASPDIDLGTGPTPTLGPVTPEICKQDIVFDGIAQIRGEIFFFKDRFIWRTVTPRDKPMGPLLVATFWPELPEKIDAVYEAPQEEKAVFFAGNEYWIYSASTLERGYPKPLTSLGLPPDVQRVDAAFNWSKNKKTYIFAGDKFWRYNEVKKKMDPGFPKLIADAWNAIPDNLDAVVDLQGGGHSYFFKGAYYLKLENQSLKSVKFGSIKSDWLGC
T7 sequence (P35354 18-604): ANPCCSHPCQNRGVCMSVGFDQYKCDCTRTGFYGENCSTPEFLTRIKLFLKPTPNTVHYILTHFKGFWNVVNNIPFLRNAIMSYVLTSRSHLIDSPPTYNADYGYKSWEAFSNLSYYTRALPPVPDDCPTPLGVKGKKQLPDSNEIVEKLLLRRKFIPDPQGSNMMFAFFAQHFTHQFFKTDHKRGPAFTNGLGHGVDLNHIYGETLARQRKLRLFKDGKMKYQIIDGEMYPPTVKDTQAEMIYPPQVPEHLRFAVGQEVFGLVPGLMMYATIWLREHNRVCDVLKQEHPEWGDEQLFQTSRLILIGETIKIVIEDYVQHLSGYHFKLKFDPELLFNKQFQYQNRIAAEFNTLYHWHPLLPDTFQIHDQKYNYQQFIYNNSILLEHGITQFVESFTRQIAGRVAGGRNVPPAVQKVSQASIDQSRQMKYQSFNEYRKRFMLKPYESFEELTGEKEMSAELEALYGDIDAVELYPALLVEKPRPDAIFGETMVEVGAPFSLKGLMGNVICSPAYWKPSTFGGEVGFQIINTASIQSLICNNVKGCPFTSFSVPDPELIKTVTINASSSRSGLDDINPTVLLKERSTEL
T13 sequence (P07948 whole entry): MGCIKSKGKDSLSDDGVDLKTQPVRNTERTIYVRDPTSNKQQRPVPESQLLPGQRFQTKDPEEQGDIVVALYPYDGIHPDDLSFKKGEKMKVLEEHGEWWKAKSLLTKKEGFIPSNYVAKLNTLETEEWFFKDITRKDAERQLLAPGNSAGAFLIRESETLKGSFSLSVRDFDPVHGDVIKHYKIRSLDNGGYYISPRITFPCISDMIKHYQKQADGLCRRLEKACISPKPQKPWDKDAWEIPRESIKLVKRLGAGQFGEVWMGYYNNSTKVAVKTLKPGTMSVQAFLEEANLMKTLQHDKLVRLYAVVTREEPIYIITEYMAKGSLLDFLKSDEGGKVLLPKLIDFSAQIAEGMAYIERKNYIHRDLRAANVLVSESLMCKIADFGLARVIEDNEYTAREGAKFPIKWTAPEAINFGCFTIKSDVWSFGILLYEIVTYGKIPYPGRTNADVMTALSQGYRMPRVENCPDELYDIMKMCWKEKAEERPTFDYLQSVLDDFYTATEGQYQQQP
T2 sequence (Q9BYF1 18-805): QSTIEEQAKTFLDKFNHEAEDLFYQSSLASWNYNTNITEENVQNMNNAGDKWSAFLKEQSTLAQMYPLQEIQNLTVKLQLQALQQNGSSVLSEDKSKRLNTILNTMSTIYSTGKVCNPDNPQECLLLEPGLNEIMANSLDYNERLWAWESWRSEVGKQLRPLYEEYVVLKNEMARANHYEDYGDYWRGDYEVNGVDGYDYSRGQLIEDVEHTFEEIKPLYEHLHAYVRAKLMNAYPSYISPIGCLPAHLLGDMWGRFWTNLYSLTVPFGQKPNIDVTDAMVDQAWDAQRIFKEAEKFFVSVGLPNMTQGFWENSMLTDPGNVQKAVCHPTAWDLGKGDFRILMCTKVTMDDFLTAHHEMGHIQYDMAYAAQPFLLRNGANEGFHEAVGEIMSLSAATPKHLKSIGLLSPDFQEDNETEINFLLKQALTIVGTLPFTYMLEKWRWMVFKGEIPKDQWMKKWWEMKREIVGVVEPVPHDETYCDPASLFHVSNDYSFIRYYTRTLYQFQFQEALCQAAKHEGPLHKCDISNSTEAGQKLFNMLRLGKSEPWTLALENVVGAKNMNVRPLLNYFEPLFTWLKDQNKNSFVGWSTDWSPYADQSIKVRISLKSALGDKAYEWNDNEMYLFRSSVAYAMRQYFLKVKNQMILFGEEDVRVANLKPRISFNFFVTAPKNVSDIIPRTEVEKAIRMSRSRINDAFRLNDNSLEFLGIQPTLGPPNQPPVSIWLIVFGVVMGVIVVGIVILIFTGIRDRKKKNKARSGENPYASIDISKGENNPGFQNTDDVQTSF
T9 sequence (P28482 whole entry): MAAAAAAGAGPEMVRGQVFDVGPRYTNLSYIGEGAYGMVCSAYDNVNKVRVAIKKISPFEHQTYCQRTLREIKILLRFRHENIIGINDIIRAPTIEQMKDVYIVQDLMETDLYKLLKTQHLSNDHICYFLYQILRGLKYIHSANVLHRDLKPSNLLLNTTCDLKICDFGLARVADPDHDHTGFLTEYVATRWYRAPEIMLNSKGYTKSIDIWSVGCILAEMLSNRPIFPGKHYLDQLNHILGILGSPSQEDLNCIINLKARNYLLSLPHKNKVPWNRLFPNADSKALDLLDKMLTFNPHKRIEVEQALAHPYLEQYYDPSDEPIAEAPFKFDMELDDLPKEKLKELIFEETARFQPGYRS
T11 sequence (P06241 whole entry): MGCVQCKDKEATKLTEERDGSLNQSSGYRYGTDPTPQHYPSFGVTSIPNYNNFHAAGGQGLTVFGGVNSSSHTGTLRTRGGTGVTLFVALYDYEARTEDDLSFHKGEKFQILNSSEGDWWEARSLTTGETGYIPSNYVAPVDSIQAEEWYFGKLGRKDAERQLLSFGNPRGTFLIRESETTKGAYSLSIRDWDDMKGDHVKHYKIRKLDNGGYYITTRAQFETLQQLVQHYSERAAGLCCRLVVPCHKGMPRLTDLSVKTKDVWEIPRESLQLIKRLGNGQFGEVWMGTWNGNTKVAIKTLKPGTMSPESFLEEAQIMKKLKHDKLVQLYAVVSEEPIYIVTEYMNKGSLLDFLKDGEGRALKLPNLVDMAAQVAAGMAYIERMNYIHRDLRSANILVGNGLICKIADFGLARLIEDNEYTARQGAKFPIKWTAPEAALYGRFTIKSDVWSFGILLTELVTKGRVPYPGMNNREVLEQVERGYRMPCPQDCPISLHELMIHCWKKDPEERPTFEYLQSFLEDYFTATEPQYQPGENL
T14 sequence (P03956 100-469): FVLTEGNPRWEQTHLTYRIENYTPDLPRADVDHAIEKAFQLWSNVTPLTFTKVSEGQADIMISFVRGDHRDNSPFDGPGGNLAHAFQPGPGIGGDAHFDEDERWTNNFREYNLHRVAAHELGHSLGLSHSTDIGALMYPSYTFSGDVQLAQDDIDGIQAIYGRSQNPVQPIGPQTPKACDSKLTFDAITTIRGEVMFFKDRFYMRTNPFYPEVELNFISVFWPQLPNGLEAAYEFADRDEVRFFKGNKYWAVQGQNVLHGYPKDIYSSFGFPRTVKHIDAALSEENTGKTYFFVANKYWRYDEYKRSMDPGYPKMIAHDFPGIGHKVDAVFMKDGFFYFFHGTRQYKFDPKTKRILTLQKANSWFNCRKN

With `O=c1cc(-c2ccccc2)oc2c(O)c(O)ccc12` [7,8-DHF, 7,8-dihydroxyflavone] the inhibition at 10 µM [1] was 5%, the inhibition at 10 µM [2] was -8% and the “% of specific inhibition” value [3] was -2%. For the same compound, the inhibition at 10 µM [4] was 25%, the inhibition at 10 µM [5] was 15% and the inhibition at 10 µM [6] was 0%. The inhibition at 10 µM [7] was 49%, the “% Inhibition of Control Specific Binding” value ([8]; 10 μM) was 81.6% and the inhibition at 10 µM [8, 33] was 82%. It also gave an inhibition at 10 µM [9] of -20%, an inhibition at 10 µM [10] of -23% and an inhibition at 10 µM [11] of 17%. The inhibition at 10 µM [12] was 21%, the “% of specific inhibition” value [13] was 2% and the “% of specific inhibition” value [14] was 1%. For the same compound, the inhibition at 10 µM [15] was 12%, the “% Inhibition of Control Specific Binding” value ([16]; 10 μM) was 52.6% and the inhibition at 10 µM [16, 33] was 53%. The inhibition at 10 µM [17] was 10%, the “% Inhibition of Control Specific Binding” value ([18]; 10 μM) was 56.5% and the inhibition at 10 µM [18, 33] was 56%. It also gave an inhibition at 10 µM [19] of 72%, an inhibition at 10 µM [20] of 5% and an inhibition at 10 µM [21] of 11%. The inhibition at 10 µM [22] was 38%, the inhibition at 10 µM [23] was 48% and the “% of specific inhibition” value [24] was 30%. For the same compound, the “% Inhibition of Control Specific Binding” value ([25]; 10 μM) was 91.5%, the inhibition at 10 µM [25, 33] was 92% and the inhibition at 10 µM [26] was 4%. The inhibition at 10 µM [27] was 5%, the inhibition at 10 µM [28] was 1% and the “% of specific inhibition” value [29] was 3%. The inhibition at 10 µM [30] was -50%, the Papp A→B at 2 h [31] was 22.8 ×10⁻⁶ cm/s and the Papp B→A at 2 h [31] was 12.4 ×10⁻⁶ cm/s. For the same compound, the microsomal CLint at 1 μM [32] was 52.2 µL/min/mg.
